According to ChEMBL document CHEMBL1201862, “PubChem BioAssay data set” (2004):
Active and inactive are the calls of the source.

How the values were obtained:
Fatty acid synthase [1] = biological target: T1, Fatty acid synthase (Homo sapiens, UniProt P49327); assay: FAS thioesterase domain inhibitors, dose response, biochemical, endpoint fluorescence intensity, uHTS hits (AID 624327); assay type: functional;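 note: fluorescence from hydrolysis of an O-methyl fluorescein acyl ester substrate by the enzyme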
Fatty acid synthase [2] = biological target: T1, Fatty acid synthase; assay: FAS thioesterase domain inhibitors, dose response, biochemical, kinetic fluorescence intensity (AID 624326); assay type: functional;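 note: rate of fluorescence rise from hydrolysis of a fluorogenic O-methyl fluorescein ester substrate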
[3] = biological target: T2, Replicative DNA helicase DnaB (Mycobacterium tuberculosis, UniProt P9WMR3); assay: DnaB intein splicing inhibitors, dose response, biochemical, cell-free fluorescence (AID 449749); assay type: functional
T2 sequence (P9WMR3 whole entry): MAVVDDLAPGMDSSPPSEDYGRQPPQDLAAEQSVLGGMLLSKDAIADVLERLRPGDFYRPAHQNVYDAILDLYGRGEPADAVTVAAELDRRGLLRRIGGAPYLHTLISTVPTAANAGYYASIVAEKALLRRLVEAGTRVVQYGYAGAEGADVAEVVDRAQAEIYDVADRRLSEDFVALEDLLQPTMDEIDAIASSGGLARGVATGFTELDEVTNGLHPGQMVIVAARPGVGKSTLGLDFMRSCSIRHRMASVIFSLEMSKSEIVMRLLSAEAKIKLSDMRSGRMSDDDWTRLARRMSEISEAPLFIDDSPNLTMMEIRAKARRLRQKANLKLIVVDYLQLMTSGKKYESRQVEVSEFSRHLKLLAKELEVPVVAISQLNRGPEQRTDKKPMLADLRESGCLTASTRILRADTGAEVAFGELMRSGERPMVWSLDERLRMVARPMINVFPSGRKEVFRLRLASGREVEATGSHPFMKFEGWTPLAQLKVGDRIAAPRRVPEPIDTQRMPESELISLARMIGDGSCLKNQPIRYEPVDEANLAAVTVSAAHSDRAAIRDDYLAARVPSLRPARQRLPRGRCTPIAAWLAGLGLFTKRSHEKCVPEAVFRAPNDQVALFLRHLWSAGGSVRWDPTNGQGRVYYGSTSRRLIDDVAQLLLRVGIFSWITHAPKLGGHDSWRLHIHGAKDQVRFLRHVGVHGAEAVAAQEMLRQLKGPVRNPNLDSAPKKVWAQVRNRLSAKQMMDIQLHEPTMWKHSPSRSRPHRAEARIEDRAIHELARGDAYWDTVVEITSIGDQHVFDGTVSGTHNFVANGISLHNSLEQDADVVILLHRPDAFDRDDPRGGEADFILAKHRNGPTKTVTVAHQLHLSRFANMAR

Protein RecA = biological target: T3, Protein RecA (Mycobacterium tuberculosis, UniProt P9WHJ3); assay: Fluorescence Cell-Free Homogeneous Dose Retest to Identify Inhibitors of RecA-Intein Splicing Activity. [Related pubchem assays (depositor defined):AID2097, AID2223, AID489010, AID492950]; assay type: functional
T3 sequence (P9WHJ3 whole entry): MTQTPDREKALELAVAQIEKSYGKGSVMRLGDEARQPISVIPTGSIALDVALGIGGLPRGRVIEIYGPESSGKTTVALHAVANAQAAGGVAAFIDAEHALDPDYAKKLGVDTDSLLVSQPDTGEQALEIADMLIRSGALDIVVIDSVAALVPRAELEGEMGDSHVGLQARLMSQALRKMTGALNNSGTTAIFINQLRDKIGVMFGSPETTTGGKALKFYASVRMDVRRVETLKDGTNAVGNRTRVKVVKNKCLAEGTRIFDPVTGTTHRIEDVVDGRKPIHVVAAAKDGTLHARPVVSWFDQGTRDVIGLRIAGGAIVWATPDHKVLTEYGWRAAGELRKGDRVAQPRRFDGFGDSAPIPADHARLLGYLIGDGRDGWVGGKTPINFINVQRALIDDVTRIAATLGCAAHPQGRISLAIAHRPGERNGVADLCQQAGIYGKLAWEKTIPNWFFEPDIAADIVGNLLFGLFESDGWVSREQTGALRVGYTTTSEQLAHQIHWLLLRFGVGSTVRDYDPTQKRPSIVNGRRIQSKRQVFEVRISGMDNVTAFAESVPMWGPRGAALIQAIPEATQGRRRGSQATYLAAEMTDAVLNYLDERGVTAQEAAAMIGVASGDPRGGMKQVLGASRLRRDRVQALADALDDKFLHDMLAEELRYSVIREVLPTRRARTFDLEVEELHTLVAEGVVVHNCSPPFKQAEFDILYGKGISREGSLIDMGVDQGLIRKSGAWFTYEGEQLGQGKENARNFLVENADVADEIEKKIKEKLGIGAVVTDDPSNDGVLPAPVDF

[4] = biological target: T4, Polyadenylate-binding protein 1 (Homo sapiens, UniProt P11940); assay: PABP1 MLLE–PAM2 interaction inhibitors, dose response, miRNA deadenylation inhibitor project, biochemical, fluorescence polarization, Cy5-PAM2 peptide, secondary (AID 602260); assay type: functional; conditions: read-out: IC50_Mean
[5] = biological target: T4, Polyadenylate-binding protein 1; assay: PABP1 MLLE–PAM2 binding inhibitor potency, dose response, biochemical, fluorescence polarization, FITC-PAM2 peptide (AID 602259); assay type: functional; conditions: read-out: IC50_Mean
[6] = Shn3 3'UTR reporter inhibitors, dose response, cell-based, Clone20 osteoblasts, firefly luciferase, cherry-picked (AID 624132); assay type: functional;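 note: firefly luciferase luminescence from reporter carrying the Shn3 3'UTR in osteoblasts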
[7] = NIH-3T3 fibroblast cytotoxicity, dose response, cytotoxicity control, cell-based, fluorescence, Alamar Blue, secondary assay (AID 2327); assay type: functional;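 note: NIH-3T3 mouse fibroblasts cultured with fluconazole at 8 µg/mL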
cells [8] = assay type: functional, cell-based
[9] = C. albicans growth with fluconazole, confirmation, fluorescence, retest (AID 2467); assay type: functional, cell-based
[10] = inhibitors of intracellular T. cruzi replication, confirmation, NIH3T3 host cells, beta-gal luminescence (AID 2044); assay type: functional, cell-based;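 note: intracellular parasites grown in NIH/3T3 mouse fibroblasts as host cells; luminescent beta-galactosidase reporter signal from transgenic T. cruzi replicating inside host cells; inhibitors lower the luminescence signal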
cells [11] = assay type: functional, cell-based; remark: listed apart in the source
[12] = cytotoxicity toward NIH3T3 fibroblasts, dose response, counter-screen, cell-based, ATP luminescence, mouse fibroblasts (AID 2010); assay type: functional;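 note: cells exposed to compound for about 90 hours before reading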
INS1 = assay: beta cell apoptosis inhibitors, cytokine rescue, dose response, luminescence, retest (AID 449756); assay type: functional, cell-based; conditions: Rattus norvegicus;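 note: cell death triggered by IL-1 beta plus TNF-alpha plus IFN-gamma mixture; protective hits raise ATP signal compared with cytokine alone wells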
[13] = biological target: T5, Corticotropin-releasing factor receptor 2/Corticotropin-releasing factor-binding protein (Homo sapiens, UniProt P24387+Q13324); assay: activators of CRF receptor 2 with binding protein – uHTS hits, confirmation (AID 602473); assay type: functional; conditions: read-out: EC50_Mean
T5 sequence (Q13324 whole entry): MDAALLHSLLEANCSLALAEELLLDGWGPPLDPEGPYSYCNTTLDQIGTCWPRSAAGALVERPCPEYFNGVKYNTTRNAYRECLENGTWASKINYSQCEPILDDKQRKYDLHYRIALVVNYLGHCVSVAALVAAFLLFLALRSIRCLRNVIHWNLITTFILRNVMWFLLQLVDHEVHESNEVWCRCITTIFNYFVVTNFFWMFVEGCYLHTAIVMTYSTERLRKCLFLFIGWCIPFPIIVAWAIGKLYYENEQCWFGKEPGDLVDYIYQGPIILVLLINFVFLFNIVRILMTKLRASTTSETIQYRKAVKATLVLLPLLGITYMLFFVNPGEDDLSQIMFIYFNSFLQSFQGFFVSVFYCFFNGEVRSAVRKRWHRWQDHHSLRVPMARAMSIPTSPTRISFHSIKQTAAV
T5 sequence (P24387 whole entry): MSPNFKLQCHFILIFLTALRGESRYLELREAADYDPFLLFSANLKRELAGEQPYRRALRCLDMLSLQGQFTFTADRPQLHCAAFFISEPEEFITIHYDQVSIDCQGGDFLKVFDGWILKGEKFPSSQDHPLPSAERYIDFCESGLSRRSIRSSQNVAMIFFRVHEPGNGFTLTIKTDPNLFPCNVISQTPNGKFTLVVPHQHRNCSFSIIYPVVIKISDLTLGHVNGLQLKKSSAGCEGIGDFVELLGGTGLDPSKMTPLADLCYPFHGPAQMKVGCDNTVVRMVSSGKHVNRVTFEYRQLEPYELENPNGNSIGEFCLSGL

Genome polyprotein = Genome polyprotein (dengue virus type 2, UniProt P29990); assay: Dengue-2 NS5 methyltransferase inhibitors, primary screen, biochemical, confirmation dose response (AID 588689); assay type: functional
Cytochrome P450 1A2 = biological target: T6, Cytochrome P450 1A2 (Homo sapiens, UniProt P05177);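 note: PubChem cytochrome P450 panel assay, CYP1A2 panel member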
T6 sequence (P05177 whole entry): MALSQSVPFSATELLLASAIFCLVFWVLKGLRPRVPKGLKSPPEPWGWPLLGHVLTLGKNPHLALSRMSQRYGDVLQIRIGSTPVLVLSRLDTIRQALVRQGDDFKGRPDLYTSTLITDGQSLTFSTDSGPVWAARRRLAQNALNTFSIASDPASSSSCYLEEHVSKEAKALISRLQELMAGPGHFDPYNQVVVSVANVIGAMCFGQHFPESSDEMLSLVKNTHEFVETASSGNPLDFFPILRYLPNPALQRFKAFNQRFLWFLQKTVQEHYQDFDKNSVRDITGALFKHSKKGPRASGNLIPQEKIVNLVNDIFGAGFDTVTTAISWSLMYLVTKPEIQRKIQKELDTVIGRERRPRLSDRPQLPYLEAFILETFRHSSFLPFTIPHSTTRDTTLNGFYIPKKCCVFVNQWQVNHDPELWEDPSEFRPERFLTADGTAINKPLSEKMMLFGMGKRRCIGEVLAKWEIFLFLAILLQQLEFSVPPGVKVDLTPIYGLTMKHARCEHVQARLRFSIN

T4 sequence (P11940 whole entry): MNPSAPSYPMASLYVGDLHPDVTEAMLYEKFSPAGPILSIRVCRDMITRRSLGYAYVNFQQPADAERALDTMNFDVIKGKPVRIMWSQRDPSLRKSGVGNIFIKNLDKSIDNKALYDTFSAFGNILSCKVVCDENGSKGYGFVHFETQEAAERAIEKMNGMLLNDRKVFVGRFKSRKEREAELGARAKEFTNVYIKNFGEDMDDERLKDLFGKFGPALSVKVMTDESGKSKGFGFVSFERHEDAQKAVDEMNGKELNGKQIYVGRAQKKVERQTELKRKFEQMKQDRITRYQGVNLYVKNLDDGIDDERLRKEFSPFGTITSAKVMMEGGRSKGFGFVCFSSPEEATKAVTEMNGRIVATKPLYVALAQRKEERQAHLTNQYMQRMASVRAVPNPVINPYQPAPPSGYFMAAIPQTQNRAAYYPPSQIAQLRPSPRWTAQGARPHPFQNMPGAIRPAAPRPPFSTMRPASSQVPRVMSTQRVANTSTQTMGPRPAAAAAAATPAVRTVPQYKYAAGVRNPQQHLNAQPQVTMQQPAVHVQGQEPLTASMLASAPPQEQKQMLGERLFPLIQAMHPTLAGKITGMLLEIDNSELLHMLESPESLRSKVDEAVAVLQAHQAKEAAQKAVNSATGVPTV
T1 sequence (P49327 whole entry, the tested form may be a part): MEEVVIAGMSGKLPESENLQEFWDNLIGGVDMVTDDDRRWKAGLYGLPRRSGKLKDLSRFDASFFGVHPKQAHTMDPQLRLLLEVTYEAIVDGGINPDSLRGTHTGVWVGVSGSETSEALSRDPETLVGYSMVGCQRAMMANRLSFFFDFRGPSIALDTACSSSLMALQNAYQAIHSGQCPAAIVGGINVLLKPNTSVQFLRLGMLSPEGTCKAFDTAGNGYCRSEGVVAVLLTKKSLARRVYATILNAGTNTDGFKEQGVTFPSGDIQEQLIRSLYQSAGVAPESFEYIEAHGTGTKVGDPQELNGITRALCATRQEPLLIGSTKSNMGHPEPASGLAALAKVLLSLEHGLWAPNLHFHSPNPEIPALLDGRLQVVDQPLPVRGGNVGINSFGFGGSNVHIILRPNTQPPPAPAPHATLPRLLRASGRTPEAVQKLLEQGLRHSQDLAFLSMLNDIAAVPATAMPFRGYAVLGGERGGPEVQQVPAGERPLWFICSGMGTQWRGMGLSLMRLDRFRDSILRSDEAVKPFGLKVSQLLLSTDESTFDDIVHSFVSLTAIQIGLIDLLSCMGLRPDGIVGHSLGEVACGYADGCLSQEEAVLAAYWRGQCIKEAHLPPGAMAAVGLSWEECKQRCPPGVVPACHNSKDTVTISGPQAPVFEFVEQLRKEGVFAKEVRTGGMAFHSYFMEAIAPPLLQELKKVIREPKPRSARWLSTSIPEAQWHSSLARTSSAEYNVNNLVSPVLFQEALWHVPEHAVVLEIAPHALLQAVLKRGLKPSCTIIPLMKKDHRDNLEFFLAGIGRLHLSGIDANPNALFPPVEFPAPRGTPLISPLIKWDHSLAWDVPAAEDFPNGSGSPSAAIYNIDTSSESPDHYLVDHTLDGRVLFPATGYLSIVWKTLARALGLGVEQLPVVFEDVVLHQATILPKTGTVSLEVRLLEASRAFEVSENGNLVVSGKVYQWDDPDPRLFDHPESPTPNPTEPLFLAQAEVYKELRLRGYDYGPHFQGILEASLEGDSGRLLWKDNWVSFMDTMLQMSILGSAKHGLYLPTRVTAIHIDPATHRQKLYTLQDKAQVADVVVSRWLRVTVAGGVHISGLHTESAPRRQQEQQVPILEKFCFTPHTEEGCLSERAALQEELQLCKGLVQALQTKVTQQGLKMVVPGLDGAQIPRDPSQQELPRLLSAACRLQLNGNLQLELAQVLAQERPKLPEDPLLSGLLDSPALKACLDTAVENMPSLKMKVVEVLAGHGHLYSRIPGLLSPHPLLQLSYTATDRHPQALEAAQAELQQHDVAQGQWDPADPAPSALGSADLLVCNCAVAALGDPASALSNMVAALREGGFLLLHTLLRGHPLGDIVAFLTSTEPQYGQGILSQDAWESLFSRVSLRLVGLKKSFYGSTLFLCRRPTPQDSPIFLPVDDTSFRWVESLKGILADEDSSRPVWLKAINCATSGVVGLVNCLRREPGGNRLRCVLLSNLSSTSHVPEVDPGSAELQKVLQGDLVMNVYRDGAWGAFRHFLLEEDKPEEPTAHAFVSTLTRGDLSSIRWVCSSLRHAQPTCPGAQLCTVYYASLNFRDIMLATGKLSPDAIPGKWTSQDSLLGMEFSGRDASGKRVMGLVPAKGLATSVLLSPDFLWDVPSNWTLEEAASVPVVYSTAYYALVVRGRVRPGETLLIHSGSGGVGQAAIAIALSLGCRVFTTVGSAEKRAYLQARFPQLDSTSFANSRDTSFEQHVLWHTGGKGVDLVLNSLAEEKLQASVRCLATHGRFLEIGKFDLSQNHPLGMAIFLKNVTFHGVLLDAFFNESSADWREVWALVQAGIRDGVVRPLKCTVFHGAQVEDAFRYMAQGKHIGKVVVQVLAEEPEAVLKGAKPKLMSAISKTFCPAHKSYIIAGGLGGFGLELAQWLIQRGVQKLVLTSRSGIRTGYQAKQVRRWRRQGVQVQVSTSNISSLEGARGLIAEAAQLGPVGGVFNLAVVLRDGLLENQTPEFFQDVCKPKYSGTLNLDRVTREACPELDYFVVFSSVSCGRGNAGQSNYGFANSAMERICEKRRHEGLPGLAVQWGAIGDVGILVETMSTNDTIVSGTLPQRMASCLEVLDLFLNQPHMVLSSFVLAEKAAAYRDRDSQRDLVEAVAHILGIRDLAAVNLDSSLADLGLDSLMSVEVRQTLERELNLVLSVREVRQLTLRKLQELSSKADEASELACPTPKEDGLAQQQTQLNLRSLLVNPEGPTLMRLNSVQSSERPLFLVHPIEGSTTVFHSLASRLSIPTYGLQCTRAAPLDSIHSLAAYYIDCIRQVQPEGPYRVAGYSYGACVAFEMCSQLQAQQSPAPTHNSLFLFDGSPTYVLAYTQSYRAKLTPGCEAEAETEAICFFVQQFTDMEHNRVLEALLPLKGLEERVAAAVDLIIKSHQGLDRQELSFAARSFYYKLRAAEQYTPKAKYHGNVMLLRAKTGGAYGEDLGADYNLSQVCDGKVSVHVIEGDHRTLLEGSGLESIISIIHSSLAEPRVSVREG
Sequence of Genome polyprotein (P29990 2492-3391 limits assumed): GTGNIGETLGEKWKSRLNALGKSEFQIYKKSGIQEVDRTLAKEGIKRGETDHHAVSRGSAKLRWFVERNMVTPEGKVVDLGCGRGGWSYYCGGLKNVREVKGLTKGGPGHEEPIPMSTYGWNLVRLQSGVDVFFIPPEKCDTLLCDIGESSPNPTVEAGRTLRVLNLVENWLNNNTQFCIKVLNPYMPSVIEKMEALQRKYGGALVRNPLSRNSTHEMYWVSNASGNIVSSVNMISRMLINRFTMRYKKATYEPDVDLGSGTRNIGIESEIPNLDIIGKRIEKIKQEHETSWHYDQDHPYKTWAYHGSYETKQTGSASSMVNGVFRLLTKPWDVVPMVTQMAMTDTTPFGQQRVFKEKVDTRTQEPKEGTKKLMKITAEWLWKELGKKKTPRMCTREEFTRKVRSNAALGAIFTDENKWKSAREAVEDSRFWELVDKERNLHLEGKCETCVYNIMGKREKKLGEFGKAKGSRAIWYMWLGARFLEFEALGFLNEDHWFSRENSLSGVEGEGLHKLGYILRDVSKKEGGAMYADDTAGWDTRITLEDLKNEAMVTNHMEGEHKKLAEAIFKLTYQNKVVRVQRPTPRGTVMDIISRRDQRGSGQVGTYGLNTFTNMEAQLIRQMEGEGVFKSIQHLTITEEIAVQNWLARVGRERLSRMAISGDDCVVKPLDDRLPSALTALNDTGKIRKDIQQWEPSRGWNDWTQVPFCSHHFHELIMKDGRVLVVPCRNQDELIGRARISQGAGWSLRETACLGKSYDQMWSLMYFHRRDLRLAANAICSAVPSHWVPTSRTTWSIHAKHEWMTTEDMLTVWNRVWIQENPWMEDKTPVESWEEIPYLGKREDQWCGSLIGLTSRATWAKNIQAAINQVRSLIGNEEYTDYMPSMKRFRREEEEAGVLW

With `CCC(C)(C)C1CCc2n[nH]c(C(=O)NCCCNC(=O)OC(C)(C)C)c2C1` (stereo not given) the IC50 (Fatty acid synthase [1]) was 0.524 µM (active) and the IC50 (Fatty acid synthase [2]) was 24.3 µM (inactive).
For `CCN1CCN(c2c(Cl)cccc2NC(=O)c2ccc3c(c2)OCCO3)CC1`, the AC50 [3] was > 380 µM (inactive) and the EC50 (Protein RecA) was > 380 µM (inactive).
With `CC1=NN(c2ccccc2)C(=O)C1C(=S)SC1CC(=O)NC1=O` (stereo not given) the IC50 [4] was > 66 µM (inactive) and the IC50 [5] was > 66 µM (inactive).
In the case of `CC1(Cc2ccc(OC(F)(F)F)cc2)C(=O)Nc2c(Cl)ccc(Cl)c21` (stereo not given), the AC50 [6] is reported as 25.7 µM (active).
With `CN(C)S(=O)(=O)c1cccc(NC(=S)N/N=C/c2cc(Br)ccc2O)c1` the EC50 [7] was > 150 µM (inactive), the EC50 (cells [8]) was 7.76 µM (active) and the EC50 [9] was 2.83 µM (active). For the same compound, the EC50 [10] was 2.27 µM (active), the EC50 (cells [11]) was > 350 µM (not active) and the EC50 [12] was > 60 µM (not active). The AC50 (INS1) was 0.481 µM (active).
For `O=C1CSC(=S)N1N=Cc1c(F)cccc1Cl`, the EC50 [13] was > 53 µM (inactive).
In the case of `CSCCC(NC(=O)c1ccccc1)C(=O)N/N=C(\C)c1ccccc1` (stereo not given), the EC50 [13] is reported as 7.06 µM (active).
In the case of `COc1ccc(C(O)c2nccc3cc(OC)c(OC)cc23)cc1OC` (stereo not given), the AC50 [3] is reported as 3.56 µM (active) and the EC50 (Protein RecA) is reported as 10.7 µM (active).
With `Cc1[nH]n(C(N)=S)c(=O)c1C(c1ccccc1)C(C#N)C#N` (stereo not given) the AC50 [3] was 16.2 µM (active) and the EC50 (Protein RecA) was 12.9 µM (active).
For `Cc1[nH]n(-c2ccccc2)c(=O)c1C(c1ccc(O)c([N+](=O)[O-])c1)c1c(C)[nH]n(-c2ccccc2)c1=O`, the AC50 [3] was 2.53 µM (active), the EC50 (Protein RecA) was 1.01 µM (active) and the IC50 (Genome polyprotein) was 28.7 µM (active).
In the case of `Cc1ccc(-n2[nH]c(C)c(/C=N/c3ccc4[nH]c(O)nc4c3)c2=O)cc1C`, the IC50 [4] is reported as 35.3 µM (inactive), the IC50 [5] is reported as 22 µM (inactive) and the AC50 (Cytochrome P450 1A2) is reported as 12.6 µM (inconclusive).
With `COc1ccc(C(=O)NN/C(C)=C/C(=O)C(F)(F)C(F)(F)C(F)(F)F)cc1` the EC50 [7] was 47.2 µM (active), the EC50 [9] was 0.384 µM (active) and the AC50 (INS1) was 32.5 µM (active).
In the case of `C=CCC1=C/C(=C\c2c(N)n3nc(CC(=O)N4CCCC4)sc3nc2=O)C=C(OC)C1=O`, the EC50 [13] is reported as 10.6 µM (active).
